According to patent publication US4435329A, “Substituted N-(ω-aroylpropionyl) derivatives of α-amino acids and esters thereof” (American Cyanamid Company, priority 1981, dated 1984):

System: angiotensin converting enzyme
Experiment: in vitro spectrophotometric assay for inhibition of angiotensin converting enzyme (method of Cushman and Cheung)
Format: biochemical
Details: crude extract of ACE from rabbit lung acetone powder; substrate benzoyl-glycyl-histidyl-leucine; 30 minutes at 37° C.; result in words only
Protocol: The in vitro activity for inhibition of the angiotensin converting enzyme was measured by the method of D. W. Cushman and H. S. Cheung, Biochem. Pharmacol., Vol. 20, pages 1637-1648 (1972), using benzoyl-glycyl-histidyl-leucine as the substrate. The reaction mixture consisted of 50 μl. of potassium phosphate (500 mM., pH of […]), 30 μl. of sodium chloride (2500 mM.), 25 μl. of substrate (50 mM.), 30 to 50 μl. of the crude extract of ACE, 10 μl. of the test compound (2.5 mM.) or vehicle, and a suitable amount of distilled water to give a total volume of 250 μl. This reaction mixture was incubated for 30 minutes at 37° C. and the reaction was then terminated by the addition of 250 μl. of 1 N hydrochloric acid. The hippuric acid was then extracted with 1.5 ml. of ethyl acetate by vortex mixing for 15 seconds. After centrifugation, one ml. of the ethyl acetate layer was pipetted into a new tube and evaporated to dryness. The extracted hippuric acid was then dissolved in one ml. of water and the amount of this acid was then measured by its absorbance at 228 nm. […] The activity of the ACE inhibitor was calculated as the percent inhibition of ACE activity compared to the control value of that particular assay. […]

inhibition of the angiotensin converting enzyme	SMILES
angiotensin converting enzyme inhibitors	CC(=O)SC(CC(=O)N[C@H](C(=O)O)C(C)C)C(=O)c1ccc(Br)cc1 (stereo partly drawn) [Example 1, N-[3-Acetylthio-3-(4-bromobenzoyl)propionyl]-L-valine]
angiotensin converting enzyme inhibitors	COc1ccc(C(=O)C(CC(=O)N[C@@H](Cc2ccccc2)C(=O)O)SC(C)=O)cc1F (stereo partly drawn) [Example 23, N-[3-Acetylthio-3-(3-fluoro-4-methoxybenzoyl)propionyl]-L-phenylalanine]
